# Biological target: T1, YkuR protein (Bacillus subtilis, UniProt O34916)
# T1 construct: the full length ykuR gene product could be separated from internally digested gene product; made in house; host or cells: E. coli BL21 (pET24a)
# Test: YkuR surrogate fluorometric assay (sodium hippurate substrate)
# Assay type: biochemical, B. subtilis
# Conditions: purified YkuR protein expressed in E. coli; phenanthroline added at increasing concentrations; FIG. 3
# Method: A fluorometric assay for YkuR and its homologues has been developed using sodium hippurate (benzoyl glycine) as a substrate. Cleavage by YkuR releases free glycine which can be detected using F-phthaldialdehyde. The assay is performed in a total volume of 100 Fl per well in black 96 well microtitre plates. 40 Fl of YkuR protein 20 Fg/ml in 10 mM Hepes pH 6.8 containing 0.5 mM dithiothreitol and 10 mM potassium chloride) is added to the appropriate wells of a 96-well plate. Appropriate concentrations of test compounds dissolved in 20 Fl of 100% DMSO are added, followed by 40 Fl of hippuric acid (250 mM in 50 mM Hepes pH 6.8 containing 0.05% Brij 35). Control wells lack either enzyme or test compound. The reactions are incubated for 1 hour at 37 EC. Following incubation 100 Fl of OPA Reagent (20 mM F-phthaldialdehyde in 50 mM borate buffer pH 9.5 containing 0.1% $-mercaptoethanol) is added to each well. The fluorescence at 460 nm is measure with an SLT Fluostar fluorometer using 355 nm excitation.
# Assay using purified YkuR protein expressed in E. coli as described above. Phenanthroline, a known inhibitor of metalloprotease enzyme activity, was added at increasing concentrations to inhibit metalloenzyme activity.
# T1 sequence (O34916 whole entry): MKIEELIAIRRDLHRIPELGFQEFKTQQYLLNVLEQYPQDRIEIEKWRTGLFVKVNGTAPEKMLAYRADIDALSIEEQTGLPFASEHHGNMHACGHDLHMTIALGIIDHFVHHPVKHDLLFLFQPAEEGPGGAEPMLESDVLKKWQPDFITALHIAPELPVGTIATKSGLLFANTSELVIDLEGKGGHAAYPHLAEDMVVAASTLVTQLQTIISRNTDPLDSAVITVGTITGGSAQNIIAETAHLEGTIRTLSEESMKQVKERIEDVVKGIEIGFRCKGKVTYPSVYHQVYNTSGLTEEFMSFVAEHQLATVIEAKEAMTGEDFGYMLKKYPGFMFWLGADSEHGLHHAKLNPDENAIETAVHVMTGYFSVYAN
smiles,measurement,value
c1cnc2c(c1)ccc1cccnc12 [Phenanthroline],IC50,96 µM

# Source: US20110212120A1, “Ykur polynucleotides and polypeptides” (VERNALIS (OXFORD) LIMITED, priority 2002, published 2011)
